Tested on: not listed separately
Assay: Loss of tail withdrawal reflex (LOTWR) in rats, single intravenous injection, dose escalation: potent analgesic effect and severe adverse reactions
Format: in vivo, SD rats
Conditions: rat, in vivo, single intravenous injection, minimum dose resulting in serious adverse reactions / minimum effective dose, class symbol, read-out: The safety therapeutic index
Procedure: (§1) Using the loss of tail withdrawal reflex (LOTWR) in rats as an indicator, the potent analgesic effect of the compounds according to the present invention was evaluated.
(§2) 1.1 Experimental animals: Adult male SD rats weighing between 220-300 g were selected for the experiment. The rats were housed in sawdust-bedded cages with a temperature of 25±1°C, humidity ranging from 40% to 60%, and a 12-hour light/12-hour dark cycle. Each cage contained no more than 5 rats, with free access to water and food.
(§3) • (1) The compound of the present invention, along with the positive control drug remifentanil and the negative control (vehicle), were administered in fixed volumes. A dose escalation approach was employed to determine the minimum effective dose at which the compound of the present invention produces potent analgesic effects, as well as the minimum dose at which severe adverse reactions first appear. • (2) LOTWR lasting for 30 seconds was used as the criterion for generating potent analgesic effects. During the experiment, drugs were administered via the tail vein of rats, with a dosage volume of 0.6 mL per rat and a dosage rate of 0.02 mL/s. Subsequently, an alligator clip was applied at a distance of 1 cm from the base of the rat's tail, clamping once longitudinally and once transversely before being left in place. Meanwhile, the distal end of the alligator clip was continuously oscillated (30 times/min) to continuously generate stimulation. […] When all results were "no LOTWR" after 10 minutes of testing (5 trials), the test was stopped and recorded as "ineffective." • (3) All compounds would undergo a dose escalation for efficacy evaluation, starting from 1 mg/kg (due to the high potency of remifentanil, the lowest dose was set at 1 µg/kg), followed by 5 mg/kg, 10 mg/kg, 20 mg/kg, and so on (increasing by 20 mg/kg increments after 20 mg/kg). The dose escalation would be stopped when rats show signs of death, and the lowest effective dose and the lowest dose at which severe adverse reactions occur would be recorded throughout the process. In this study, severe adverse reactions are defined as apnea, generalized tonic rigidity, convulsions, opisthotonus, seizures, etc.
(§4) 1.3 Evaluation indicators: the minimum effective dose; the minimum dose resulting in serious adverse reactions; the safety therapeutic index = "the minimum dose resulting in serious adverse reactions" / "the minimum effective dose".

Compound	selectivity ratio
CCCCc1cc(CNC(=O)NCc2ccc(C)cc2N(C)C)cs1 [Example 51]	2 to 4
Cc1ccc(CNC(=N)NCc2ccnn2C)c(N(C)C)c1 [Example 111]	≤ 2
CN(C)c1ccccc1CNC(=O)NCc1cccs1 [Example 27]	> 4
Cc1ccc(CNC(=O)NCc2ccoc2)c(N(C)C)c1 [Example 9]	≤ 2
Cc1ccc(CNC(=N)NCc2cccs2)cc1N(C)C [Example 33]	≤ 2
Cc1ccc(CSC(=S)OCc2ccsc2)c(N(C)C)c1 [Example 121]	2 to 4
CN(C)c1cc(C(F)(F)F)ccc1CNC(=O)NCc1cccs1 [Example 29]	≤ 2
Cc1ccc(NC(=S)Nc2ccsc2)cc1N(C)C [Example 79]	≤ 2
Cc1ccc(CNC(=O)Nc2ccns2)c(N(C)C)c1 [Example 61]	≤ 2
CN(C)c1ccc(Oc2ccccc2)cc1CNC(=O)NCc1ccsc1 [Example 48]	2 to 4
Cc1ccc(CNC(=O)NCc2ccns2)c(N(C)C)c1 [Example 37]	> 4
CN(C)c1cccc(CNC(=O)NCc2ccsc2)c1 [Example 30]	≤ 2
CN(C)c1cc(C(F)(F)F)ccc1CNC(=S)NCc1cccs1 [Example 88]	> 4
CN(C)c1ccccc1CNC(=O)NCc1ccsc1 [Example 24]	2 to 4
Cc1ccc(CNC(=S)NCc2ncc[nH]2)c(N(C)C)c1 [Example 74]	≤ 2
CN(C)c1cccc(NC(=N)Nc2ccsc2)c1 [Example 96]	≤ 2
Cc1ccc(CNC(=N)NCc2ccsc2)c(N(C)C)c1 [Example 3, 1-(2-(dimethylamino)-4-methylbenzyl)-3-(thiophen-3-ylmethyl)guanidine]	2 to 4
Cc1ccc(CCNC(=O)NCc2ccsc2)c(N(C)C)c1 [Example 11, 1-(2-(dimethylamino)-4-methylphenethyl)-3-(thiophene-3-ylmethyl)urea]	2 to 4
Cc1ccc(CNC(=O)NCc2ccno2)c(N(C)C)c1 [Example 42]	≤ 2
Cc1ccc(CNC(=S)NCc2ccsc2)c(N(C)C)c1 [Example 2, 1-(2-(dimethylamino)-4-methylbenzyl)-3-(thiophene-3-ylmethyl)thiourea]	≤ 2
CN(C)c1cc(C(C)(C)C)ccc1CNC(=S)NCc1cccs1 [Example 118]	≤ 2
Cc1cc(CNC(=N)NCc2ccc(C)c(N(C)C)c2)n(C)n1 [Example 110]	≤ 2
Cc1ccc(CNC(=S)NCc2cc(C)nn2C)c(N(C)C)c1 [Example 107]	2 to 4
CCCCc1ccc(CNC(=O)NCc2ccco2)cc1N(C)C [Example 120]	> 4

Tested on: rats
Assay: as above
Format: in vivo, SD rats
Conditions: Rattus norvegicus, single intravenous injection (tail vein), LOTWR lasting for 30 seconds as criterion, class symbol, read-out: The minimum effective dose
Procedure: as §1, §2, §3, §4

Compound	minimal effective dose
CCCCc1cc(CNC(=O)NCc2ccc(C)cc2N(C)C)cs1 [Example 51]	≤ 10 mg/kg
Cc1ccc(CNC(=N)NCc2ccnn2C)c(N(C)C)c1 [Example 111]	≤ 10 mg/kg
CN(C)c1ccccc1CNC(=O)NCc1cccs1 [Example 27]	≤ 10 mg/kg
Cc1ccc(CNC(=O)NCc2ccoc2)c(N(C)C)c1 [Example 9]	20 to 30 mg/kg
Cc1ccc(CNC(=N)NCc2cccs2)cc1N(C)C [Example 33]	≤ 10 mg/kg
Cc1ccc(CSC(=S)OCc2ccsc2)c(N(C)C)c1 [Example 121]	> 30 mg/kg
CN(C)c1cc(C(F)(F)F)ccc1CNC(=O)NCc1cccs1 [Example 29]	≤ 10 mg/kg
Cc1ccc(NC(=S)Nc2ccsc2)cc1N(C)C [Example 79]	20 to 30 mg/kg
Cc1ccc(CNC(=O)Nc2ccns2)c(N(C)C)c1 [Example 61]	≤ 10 mg/kg
CN(C)c1ccc(Oc2ccccc2)cc1CNC(=O)NCc1ccsc1 [Example 48]	≤ 10 mg/kg
Cc1ccc(CNC(=O)NCc2ccns2)c(N(C)C)c1 [Example 37]	≤ 10 mg/kg
CN(C)c1cccc(CNC(=O)NCc2ccsc2)c1 [Example 30]	20 to 30 mg/kg
CN(C)c1cc(C(F)(F)F)ccc1CNC(=S)NCc1cccs1 [Example 88]	≤ 10 mg/kg
CN(C)c1ccccc1CNC(=O)NCc1ccsc1 [Example 24]	10 to 20 mg/kg
Cc1ccc(CNC(=S)NCc2ncc[nH]2)c(N(C)C)c1 [Example 74]	> 30 mg/kg
CN(C)c1cccc(NC(=N)Nc2ccsc2)c1 [Example 96]	≤ 10 mg/kg
Cc1ccc(CNC(=N)NCc2ccsc2)c(N(C)C)c1 [Example 3, 1-(2-(dimethylamino)-4-methylbenzyl)-3-(thiophen-3-ylmethyl)guanidine]	≤ 10 mg/kg
Cc1ccc(CCNC(=O)NCc2ccsc2)c(N(C)C)c1 [Example 11, 1-(2-(dimethylamino)-4-methylphenethyl)-3-(thiophene-3-ylmethyl)urea]	≤ 10 mg/kg
Cc1ccc(CNC(=O)NCc2ccno2)c(N(C)C)c1 [Example 42]	> 30 mg/kg
Cc1ccc(CNC(=S)NCc2ccsc2)c(N(C)C)c1 [Example 2, 1-(2-(dimethylamino)-4-methylbenzyl)-3-(thiophene-3-ylmethyl)thiourea]	≤ 10 mg/kg
CN(C)c1cc(C(C)(C)C)ccc1CNC(=S)NCc1cccs1 [Example 118]	≤ 10 mg/kg
Cc1cc(CNC(=N)NCc2ccc(C)c(N(C)C)c2)n(C)n1 [Example 110]	≤ 10 mg/kg
Cc1ccc(CNC(=S)NCc2cc(C)nn2C)c(N(C)C)c1 [Example 107]	10 to 20 mg/kg
CCCCc1ccc(CNC(=O)NCc2ccco2)cc1N(C)C [Example 120]	≤ 10 mg/kg

Reference: patent EP4786459A1, “BENZENE RING-CONTAINING COMPOUND HAVING ANALGESIC EFFECT, PREPARATION METHOD THEREFOR, AND USE THEREOF” (West China Hospital, Sichuan University, priority 2023, dated 2025)
